Experimental data reported in the NIST ThermoML archive (doi:10.1016/j.fluid.2013.01.003).

Settings: 101.33 kPa, Liquid; for electrical conductivity: Alternating current cell with electrodes; for viscosity: Falling or rolling sphere viscometry; for mass density: Vibrating tube method

O=S(=O)([N-]S(=O)(=O)C(F)(F)F)C(F)(F)F.OCC[n+]1ccccc1
Settings	electrical conductivity [S/m]	mass density [kg/m3]	viscosity [mPa·s]
273.15 K	0.0435	1614.7	645
278.15 K	0.0655	1609.2	421.9
283.15 K	0.0945	1604	285.8
288.15 K	0.132	1599.44	200.9
293.15 K	0.178	1594.47	145.7
298.15 K	0.233	1589.51	108.7
303.15 K	0.299	1584.59	83.19
313.15 K	0.461	1574.82	52.03
323.15 K	0.668	1565.16	34.91
333.15 K	0.912	1555.59	24.77
343.15 K	1.2	1546.08	18.37
353.15 K	1.52	1536.66	14.12
363.15 K	–	1527.29	11.18
